From patent US9096560B2, “5-heterocyclylalkyl-3-hydroxy-2-phenylcyclopent-2-enones as herbicides” (Syngenta Limited, priority 2008, dated 2015) come the findings set out here.

Common to all, as to type: in vivo
Test [1] relates to Avena fatua (AVEFA). Description: Example B post-emergence herbicidal test, AVEFA. As to conditions: Avena fatua, 312 h, rate 250 g/ha, evaluated after 13 days, scale 0-100, read-out: Post-emergence activity AVEFA (100=total damage to plant; 0=no damage to plant). On the procedure:
(§1) Seeds of a variety of test species were sown in standard soil in pots. After cultivation for one day (pre-emergence) or after 8 days cultivation (post-emergence) under controlled conditions in a glasshouse (at 24/16° C., day/night; 14 hours light; 65% humidity), the plants were sprayed with an aqueous spray solution derived from the formulation of the technical active ingredient in acetone/water (50:50) solution containing 0.5% Tween 20 (polyoxyethelyene sorbitan monolaurate, CAS RN 9005-64-5). The test plants were then grown in a glasshouse under controlled conditions in a glasshouse (at 24/16° C., day/night; 14 hours light; 65% humidity) and watered twice daily. After 13 days for pre and post-emergence, the test was evaluated (100=total damage to plant; 0=no damage to plant). Lolium perenne (LOLPE), Alopecurus myosuroides (ALOMY), Echinochloa crus-galli (ECHCG), Avena fatua (AVEFA) Post-Emergence Activity

In test [2] the test system is Echinochloa crus-galli (ECHCG). Description: Example B post-emergence herbicidal test, ECHCG. The conditions noted are these: Echinochloa crus-galli, 312 h, rate 250 g/ha, evaluated after 13 days, scale 0-100, read-out: Post-emergence activity ECHCG (100=total damage to plant; 0=no damage to plant). On the procedure: as §1
For test [3], the system named is Lolium perenne (LOLPE). Description: Example B post-emergence herbicidal test, LOLPE. The conditions noted are these: Lolium perenne, 312 h, rate 250 g/ha, evaluated after 13 days, scale 0-100, read-out: Post-emergence activity LOLPE (100=total damage to plant; 0=no damage to plant). On the procedure: as §1
The test system of test [4] is Alopecurus myosuroides (ALOMY). Description: Example B pre-emergence herbicidal test, ALOMY. As to conditions: Alopecurus myosuroides, 312 h, rate 250 g/ha, evaluated after 13 days, 100=total damage to plant, 0=no damage to plant. On the procedure: as §1, with “Pre-Emergence” for “Post-Emergence”
Test [5] has as its system Alopecurus myosuroides (ALOMY). Description: Example B post-emergence herbicidal test, ALOMY. As to conditions: Alopecurus myosuroides, 312 h, rate 250 g/ha, evaluated after 13 days, scale 0-100, read-out: Post-emergence activity ALOMY (100=total damage to plant; 0=no damage to plant). As for the experimental part: as §1
In test [6] the test system is Lolium perenne (LOLPE). Description: Example B pre-emergence herbicidal test, LOLPE. The conditions noted are these: Lolium perenne, 312 h, rate 250 g/ha, evaluated after 13 days, 100=total damage to plant, 0=no damage to plant. On the procedure:
as §1, with “Pre-Emergence” for “Post-Emergence”

In test [7] the test system is Echinochloa crus-galli (ECHCG). Description: Example B pre-emergence herbicidal test, ECHCG. The conditions noted are these: Echinochloa crus-galli, 312 h, rate 250 g/ha, evaluated after 13 days, 100=total damage to plant, 0=no damage to plant. As for the experimental part: as §1, with “Pre-Emergence” for “Post-Emergence”
Test [8] deals with Avena fatua (AVEFA). Description: Example B pre-emergence herbicidal test, AVEFA. As to conditions: Avena fatua, 312 h, rate 250 g/ha, evaluated after 13 days, 100=total damage to plant, 0=no damage to plant. As for the experimental part: as §1, with “Pre-Emergence” for “Post-Emergence”

For `CON1CCC(CC2CC(OC(C)=O)=C(c3c(C)cc(C)cc3C)C2=O)CC1` (stereo not shown) [Compound P50], the pest or weed control at 250 g/ha (with Avena fatua (AVEFA) [1]; in test [2]; in the test with Lolium perenne (LOLPE) [3]; in test [4]; in test [5]; with Lolium perenne (LOLPE) [6]) was 100% in each case. Besides, the pest or weed control at 250 g/ha (in test [7]; with Avena fatua (AVEFA) [8]) was 100% in each case.
`CON1CCC(CC2CC(OC(=O)C(C)(C)C)=C(c3c(C)cc(C)cc3C)C2=O)CC1` (stereo not shown) [Compound P51]: the pest or weed control at 250 g/ha (in the test with Avena fatua (AVEFA) [1]; in test [2]; with Lolium perenne (LOLPE) [3]; in test [4]; in test [5]; in the test on Lolium perenne (LOLPE) [6]) was 100% in each case. Further, the pest or weed control at 250 g/ha (in test [7]; with Avena fatua (AVEFA) [8]) was 100% each time.
For `Cc1cc(C)c(C2=C(OC(=O)OC(C)(C)C)C/C(=C\C3CCN(C(=O)OC(C)(C)C)CC3)C2=O)c(C)c1` [Compound P53], the pest or weed control at 250 g/ha with Avena fatua (AVEFA) [1] was determined as 40%; in test [2], 70%; in the test with Lolium perenne (LOLPE) [3], 20%; in test [4] it was 60%; in test [5], 60%; with Lolium perenne (LOLPE) [6], 100%. In addition, the pest or weed control at 250 g/ha in test [7] is 90%; in the test with Avena fatua (AVEFA) [8] it was 70%.
Regarding `Cc1cc(C)c(C2=C(OC(=O)OC(C)(C)C)CC(CC3CCN(C(=O)OC(C)(C)C)CC3)C2=O)c(C)c1` (stereo not shown) [Compound P54], the pest or weed control at 250 g/ha with Avena fatua (AVEFA) [1] was determined as 50%; in test [2], 80%; with Lolium perenne (LOLPE) [3], 40%; in test [4], 80%; in test [5] it was 70%; in the test with Lolium perenne (LOLPE) [6], 100%. Moreover, the pest or weed control at 250 g/ha in test [7] is 100%; in the test with Avena fatua (AVEFA) [8] it was 70%.
On to `CON1CCC(CC2CC(OC(=O)c3ccccc3)=C(c3c(C)cc(C)cc3C)C2=O)CC1` (stereo not shown) [Compound P55], for which the pest or weed control at 250 g/ha turned out to be 100% with Avena fatua (AVEFA) [1]; 100% in test [2]; 100% in the test on Lolium perenne (LOLPE) [3]; 100% in test [4]; 90% in test [5]; 100% in the test with Lolium perenne (LOLPE) [6]. In addition, the figures for the pest or weed control at 250 g/ha (in test [7]; with Avena fatua (AVEFA) [8]) were 100% and 90%, respectively.
On to `Cc1cc(C)c(C2=C(OC(=O)C3CC3)CC(CC3CCN(C(=O)C4CC4)C3)C2=O)c(C)c1` (stereo not shown) [Compound P57], for which the pest or weed control at 250 g/ha in the test with Avena fatua (AVEFA) [1] turned out to be 80%; in test [2], 70%; with Lolium perenne (LOLPE) [3], 60%; in test [4] it was 50%; in test [5], 80%; in the test on Lolium perenne (LOLPE) [6] it was 60%. Also, the pest or weed control at 250 g/ha was found to be 30% in test [7] and 70% in the test with Avena fatua (AVEFA) [8].
`Cc1cc(C)c(C2=C(OC(=O)C(C)C)CC(CC3CCN(C(=O)C(C)C)C3)C2=O)c(C)c1` (stereo not shown) [Compound P58]: the pest or weed control at 250 g/ha with Avena fatua (AVEFA) [1] amounted to 90%; in test [2] it was 70%; in the test with Lolium perenne (LOLPE) [3] it was 90%; in test [4], 70%; in test [5] it was 90%; in the test with Lolium perenne (LOLPE) [6], 80%. The values for the pest or weed control at 250 g/ha (in test [7]; with Avena fatua (AVEFA) [8]) were 80% and 70%, respectively.
`Cc1cc(C)c(C2=C(OC(=O)C(C)(C)C)CC(CC3CCN(C(=O)C(C)(C)C)C3)C2=O)c(C)c1` (stereo not shown) [Compound P59]: the pest or weed control at 250 g/ha amounted to 80% in the test on Avena fatua (AVEFA) [1]; 70% in test [2]; 80% in the test on Lolium perenne (LOLPE) [3]; 50% in test [4]; 90% in test [5]; 80% with Lolium perenne (LOLPE) [6]. Moreover, the figures for the pest or weed control at 250 g/ha (in test [7]; with Avena fatua (AVEFA) [8]) were 70% and 30%, respectively.
As for `Cc1cc(C)c(C2=C(OC(=O)C(C)(C)CCl)CC(CC3CCN(C(=O)C(C)(C)CCl)C3)C2=O)c(C)c1` (stereo not shown) [Compound P60], the pest or weed control at 250 g/ha in the test with Avena fatua (AVEFA) [1] is 80%; in test [2], 40%; with Lolium perenne (LOLPE) [3], 70%; in test [4], 30%; in test [5], 80%; in the test on Lolium perenne (LOLPE) [6], 80%. In addition, the pest or weed control at 250 g/ha in test [7] came to 50%; in the test on Avena fatua (AVEFA) [8], 0%.
Regarding `Cc1cc(C)c(C2=C(OC(=O)c3cccs3)CC(CC3CCN(C(=O)c4cccs4)C3)C2=O)c(C)c1` (stereo not shown) [Compound P61], the pest or weed control at 250 g/ha in the test with Avena fatua (AVEFA) [1] was 90%; in test [2] it was 90%; in the test on Lolium perenne (LOLPE) [3] it was 90%; in test [4], 50%; in test [5] it was 90%; in the test on Lolium perenne (LOLPE) [6], 90%. In addition, the pest or weed control at 250 g/ha in test [7] was determined as 80%; in the test on Avena fatua (AVEFA) [8], 30%.
As to `Cc1cc(C)c(C2=C(OC(=O)c3c(C)noc3C)CC(CC3CCN(C(=O)c4c(C)noc4C)C3)C2=O)c(C)c1` (stereo not shown) [Compound P63], the pest or weed control at 250 g/ha was determined as 90% with Avena fatua (AVEFA) [1]; 70% in test [2]; 80% in the test with Lolium perenne (LOLPE) [3]; 50% in test [4]; 90% in test [5]; 70% in the test with Lolium perenne (LOLPE) [6]. Moreover, the pest or weed control at 250 g/ha in test [7] stood at 70%; with Avena fatua (AVEFA) [8] it was 40%.
`Cc1cc(C)c(C2=C(OC(=O)c3ccc(Cl)nc3)CC(CC3CCN(C(=O)c4ccc(Cl)nc4)C3)C2=O)c(C)c1` (stereo not shown) [Compound P64]: the pest or weed control at 250 g/ha worked out at 100% in the test with Avena fatua (AVEFA) [1]; 90% in test [2]; 90% in the test with Lolium perenne (LOLPE) [3]; 70% in test [4]; 100% in test [5]; 80% with Lolium perenne (LOLPE) [6]. The pest or weed control at 250 g/ha in test [7] came to 80%; in the test on Avena fatua (AVEFA) [8], 70%.
In the case of `CCC(=O)OC1=C(c2c(C)cc(C)cc2C)C(=O)C(CC2CCN(C(=O)CC)CC2)C1` (stereo not shown) [Compound P65], the pest or weed control at 250 g/ha in the test on Avena fatua (AVEFA) [1] was 90%; in test [2] it was 90%; with Lolium perenne (LOLPE) [3], 90%; in test [4], 60%; in test [5], 90%; in the test on Lolium perenne (LOLPE) [6] it was 90%. The pest or weed control at 250 g/ha in test [7] was 80%; in the test on Avena fatua (AVEFA) [8] it was 60%.
As for `Cc1cc(C)c(C2=C(O)CC(CC3CCOCC3)C2=O)c(C)c1` (stereo not shown) [Compound P67], the pest or weed control at 250 g/ha in the test with Avena fatua (AVEFA) [1] was determined as 100%; in test [2] it was 100%; in the test on Lolium perenne (LOLPE) [3], 100%; in test [4] it was 80%; in test [5] it was 100%; in the test on Lolium perenne (LOLPE) [6], 100%. The pest or weed control at 250 g/ha (in test [7]; with Avena fatua (AVEFA) [8]) was 90% throughout.
